Measurements from EP4763839A1 (Pamplona Therapeutics (Shenzhen) Co., Ltd., priority 2023, dated 2025).

How the values were obtained:
IL-6 = test: Inhibition of R848-induced IL-6 release in human PBMCs, IL-6 ELISA; format: cell-based; conditions: PBMC, compound 24 hours, then R848 10 µg/mL 5 hours
Procedure: Example 3: Detection of inhibition of R848-induced IL-6 release
Cryopreserved human PBMCs (Milestone® Biotechnologies, PB010C-W) were thawed and resuspended in RPMI-1640 medium (Gibco, 22400-105) supplemented with 10% fetal bovine serum (Gibco, 10099-141), 100 U/mL penicillin, and 100 µg/mL streptomycin (Gibco, 15140122). Subsequently, 190 µL of the PBMC suspension was added to each well of 96-well clear cell culture plates (Corning, 3599) to achieve a density of 1×10^5 cells/well. The cell plates were incubated at 37°C in a 5% CO2 incubator for 30 minutes. Then, 5 µL of diluted compound solution was added to the corresponding cell-seeded wells to achieve final concentrations ranging from 0.046 to 3,000 nM. The final concentration of DMSO was 0.1%. After the compound-treated cell plate was incubated at 37°C in a 5% CO2 incubator for 24 hours, 5 µL of R848 (MCE, HY-13740) was added to achieve a final concentration of 10 µg/mL. The cell plates were incubated again at 37°C in a 5% CO2 incubator for 5 hours, then centrifuged at 1,000 rpm for 1 minute. 100 µL of the cell supernatant from each well was transferred to a new 96-well clear cell culture plate for IL-6 concentration testing.
Interleukin-6 (IL-6) ELISA assay
The IL-6 concentration in the supernatant of R848-induced human PBMCs was determined using a Human IL-6 (interleukin-6) ELISA KIT (4Bio, CHE0009-048). IL-6 standard solutions at different concentrations, ranging from 3.9 to 250 pg/mL, were prepared according to the manufacturer's instructions. 100 µL of each concentration of the IL-6 standard solution and the pre-diluted test cell supernatant samples were added separately to anti-IL-6 antibody-coated and blocked clear 96-well plates, followed by incubation at 37°C for 1.5 hours. According to the product instructions, the plates were washed, 100 µL of biotinylated antibody was added, and the plates were incubated at 37°C for 1 hour. The plates were washed, 100 µL of enzyme conjugate working solution was added. The plates were incubated at 37°C for 30 minutes, and then washed. 100 µL of chromogenic substrate was added, and the plates were incubated at 37°C for 10-20 minutes. The reaction was terminated by adding 100 µL of stop solution. After the reaction, the OD value at 450 nm was measured in absorbance mode using an Envision microplate reader (PerkinElmer). A standard curve was plotted using the corrected OD values of the various concentrations of IL-6 standard solutions. The IL-6 concentration in each cell supernatant was then determined on the basis of the corresponding concentration for the corrected OD value of the test sample on the standard curve. […] Subsequently, the IC50 value of the compound was calculated by performing non-linear curve fitting of concentration versus inhibition rate using GraphPad Prism 9.

IRAK4 [1] = target: T1, IRAK4 (Homo sapiens, UniProt Q9NWZ3); test: Degradation of IRAK4 in THP1 cells, Western blot; format: cell-based; set-up: Degradation of IRAK4 in THP1 by compound; host or cells: THP-1; conditions: THP-1 cells, 24 hours of incubation; for DC50: IRAK4 protein by Western blot, read-out: DC50; for Dmax: maximum degradation rate, read-out: Dmax
T1 sequence (Q9NWZ3 1-460): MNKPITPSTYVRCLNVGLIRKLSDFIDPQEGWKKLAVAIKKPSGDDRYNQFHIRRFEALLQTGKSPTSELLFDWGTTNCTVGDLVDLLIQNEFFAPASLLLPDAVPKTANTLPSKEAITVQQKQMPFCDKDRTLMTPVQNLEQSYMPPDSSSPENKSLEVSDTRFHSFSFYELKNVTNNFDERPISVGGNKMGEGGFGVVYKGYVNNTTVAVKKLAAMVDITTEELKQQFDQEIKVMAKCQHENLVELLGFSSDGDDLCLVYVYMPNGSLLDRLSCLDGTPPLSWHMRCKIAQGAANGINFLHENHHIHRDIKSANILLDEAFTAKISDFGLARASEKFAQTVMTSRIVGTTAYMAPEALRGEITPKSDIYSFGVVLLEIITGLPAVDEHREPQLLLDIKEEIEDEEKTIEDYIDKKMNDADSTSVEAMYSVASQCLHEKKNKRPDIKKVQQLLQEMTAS
Procedure, shortened: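 Degradation rate derived from densitometry of IRAK4 bands versus DMSO-treated controls. Read-out: anti-IRAK4 immunoblot (10% gel, 40 μg total protein per lane, BCA-normalised) of lysates from THP1 cells incubated with compound for 24 h.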

[2] = Pharmacokinetic detection in rats after intravenous injection and oral administration; format: in vivo, Sprague-Dawley (SD) rats; conditions: rat; for AUC / Cmax / half-life: in vivo, oral administration
Procedure: Example 4. Pharmacokinetic detection
This study was designed to investigate the pharmacokinetic properties of the compounds in rats following intravenous injection and oral administration.
Experimental protocol: Six healthy male Sprague-Dawley (SD) rats were used for each compound, randomly divided into two groups of three animals each, with body weights ranging from 180-220 g. The rats were fasted overnight (10-14 hours) prior to administration, with free access to water, and food was restored 4 hours after administration. The compounds were formulated in a vehicle consisting of 5% DMSO + 10% solutol + 85% physiological saline (w/v). […] For A170, A177, and A180, the intravenous injection group received a dose of 1 mg/kg with an administration volume of 1 mL/kg, and the oral administration group received a dose of 5 mg/kg with an administration volume of 5 mL/kg. Blank blood samples were collected prior to administration. After administration, 0.2 mL of blood was collected from the jugular vein or other suitable methods at predetermined time points (0.083 h, 0.25 h, 0.5 h, 1 h, 2 h, 4 h, 8 h, 24 h) into EDTA-K2 anticoagulant tubes, and plasma was separated by centrifugation at 6800 g for 6 minutes. After the experiment, the concentration of the compound in plasma was quantitatively detected using liquid chromatography-tandem mass spectrometry (LCMS/MS). Pharmacokinetic parameters were calculated on the basis of the plasma concentration data at different time points using Phoenix WinNonlin version 8.3.5.

IRAK4 [3] = target: T1, IRAK4; conditions: Phase I clinical studies in hidradenitis suppurativa and atopic dermatitis; cited from earlier work
[4] = oral 5 mg/kg, intravenous 1 mg/kg
[5] = oral 10 mg/kg, intravenous 2 mg/kg

Compound | IC50 (IL-6) [nM] | DC50 (IRAK4 [1]) [nM] | Dmax (IRAK4 [1]) [%] | AUC ([2]; 5 mg/kg) [ng·h/mL] | Cmax ([2]; 5 mg/kg) [ng/mL] | half-life ([2]; 5 mg/kg) [h] | F [2, 4] [%] | AUC ([2]; 10 mg/kg) [ng·h/mL] | Cmax ([2]; 10 mg/kg) [ng/mL] | half-life ([2]; 10 mg/kg) [h] | F [2, 5] [%] | safety and tolerability (IRAK4 [3])
Cn1c(=O)n(C2CCC(=O)NC2=O)c2ccc(N3CCC(CN4CCN(c5ccc(-n6cc(NC(=O)c7cccc(C(F)(F)F)n7)c(C(N)=O)n6)cc5)CC4)CC3)cc21 (centres unmarked) [Compound A177] | < 10 | < 100 | > 60 | 1230 | 120 | 8 | 8 |  |  |  |  | 
Cn1c(=O)n(C2CCC(=O)NC2=O)c2cccc(N3CCC(CN4CCN(c5ccc(-n6cc(NC(=O)c7cccc(C(F)(F)F)n7)c(C(N)=O)n6)cc5)CC4)CC3)c21 (centres unmarked) [Compound A178] | < 10 | < 100 | > 60 |  |  |  |  | 6560 | 593 | 15 | 30 | 
NC(=O)c1nn(-c2ccc(N3CCN(CC4CCN(c5ccc6c(c5)CN(C5CCC(=O)NC5=O)C6=O)CC4)CC3)cc2)cc1NC(=O)c1cccc(C(F)(F)F)n1 (centres unmarked) [Compound A169] | < 10 | < 100 | > 60 |  |  |  |  | 3520 | 408 | 5 | 16 | 
NC(=O)c1nn(-c2ccc(N3CCN(CC4CCN(c5ccc6c(c5)CN(C5CCC(=O)NC5=O)C6=O)CC4(F)F)CC3)cc2)cc1NC(=O)c1cccc(C(F)(F)F)n1 (centres unmarked) [Compound A170] | < 10 | < 100 | > 60 | 2160 | 285 | 7 | 28 |  |  |  |  | 
Cn1c(=O)n(C2CCC(=O)NC2=O)c2cccc(C#CCOC3CCN(C[C@H]4CC[C@H](n5cc(NC(=O)c6cnn7ccc(N8C[C@H]9C[C@@H]8CO9)nc67)c(C(F)F)n5)CC4)CC3)c21 (some centres unmarked) [KT-474] |  |  |  |  |  |  |  |  |  |  |  | favorable safety and tolerability
